Laboratory results reported in patent publication US5264445A, “(-)-N"-cyano-N-3-pyridyl-N'-1,2,2-trimethylpropylguanidine” (Eli Lilly and Company, priority 1992, dated 1993).

Experiments:
[1] = system: spontaneously hypertensive rats; details: cited from earlier work
Purkinje fiber = Purkinje fiber assay: reducing the Purkinje fiber action potential duration; type: cell-based; details: reducing canine Purkinje fiber action potential duration in vitro, ±SEM
Method: (§1) All six compounds were tested in the Purkinje fiber and canine cephalic vein assays taught by Steinberg et al., Journal of Cardiovascular Pharmacology, 12 (Suppl. 2), S30-S40 (1988). The effective concentration for reducing the Purkinje fiber action potential duration and for relaxing phenylephrine-contracted cephalic veins, respectively, otherwise known as the EC50, was determined for each compound and is reported in Table I.

[2] = system: phenylephrine-contracted cephalic veins; test: Canine cephalic vein assay: relaxing phenylephrine-contracted cephalic veins; type: cell-based; details: relaxing phenylephrine-contracted canine cephalic veins in vitro, ±SEM
Method: as §1

potassium channels [3] = test: Potency as potassium channel opener (comparison of isomers); details: compared with its (+) enantiomer, pinacidil, or any of the pinacidil enantiomers
Excerpt: Pinacidil is currently undergoing clinical trials to determine its antihypertensive potential. By virtue of the branched N-alkyl side chain, pinacidil is a mixture of two enantiomers. Recently, both enantiomers have been prepared and studied -- see, Weston et al., Drugs, 36 (Suppl. 7), 10 (1988).

potassium channels [4] = details: reported by Weston et al., Drugs, 36 (Suppl. 7), 10 (1988); cited from earlier work
[5] = Canis lupus familiaris, purkinje

| SMILES | minimal effective dose (MED) to decrease blood pressure [1] | EC50 (Purkinje fiber; [5]) | EC50 ([2]; Canis lupus familiaris) | EC50 (Purkinje fiber) | EC50 [2] | relative potency as a potassium channel opener (potassium channels [3]) | relative potency of pinacidil enantiomers (potassium channels [4]) |
| --- | --- | --- | --- | --- | --- | --- | --- |
| CC(N/C(=N\C#N)Nc1ccncc1)C(C)(C)C (racemic) [(±)-Pinacidil, N"-cyano-N-4-pyridyl-N'-1,2,2-trimethylpropylguanidine] | 0.5 mg/kg | 3 ± 1 µM | 760 ± 120 nM |  |  |  |  |
| CC(NC(=NC#N)Nc1cccnc1)C(C)(C)C (racemic) [N"-cyano-N-3-pyridyl-N'-1,2,2-trimethylpropylguanidine] | 1 mg/kg | 0.5 ± 0.03 µM | 560 ± 140 nM |  |  |  |  |
| CC(NC(=NC#N)Nc1cccnc1)C(C)(C)C (single isomer, unassigned; (+)) [(+)-N"-cyano-N-3-pyridyl-N'-1,2,2-trimethylpropylguanidine] |  |  |  | 23 ± 4.7 µM | 6410 ± 1800 nM |  |  |
| CC(NC(=NC#N)Nc1ccncc1)C(C)(C)C (single isomer, unassigned; (+)) [(+)-Pinacidil] |  |  |  | 55 ± 9.6 µM | 9550 ± 70 nM |  |  |
| CC(NC(=NC#N)Nc1cccnc1)C(C)(C)C (single isomer, unassigned; (-)) [(-)-N"-cyano-N-3-pyridyl-N'-1,2,2-trimethylpropylguanidine] |  |  |  | 0.43 ± 0.26 µM | 90 ± 30 nM | considerably more potent |  |
| CC(NC(=NC#N)Nc1ccncc1)C(C)(C)C (single isomer, unassigned; (-)) [(-)-Pinacidil] |  |  |  | 3.2 ± 1.2 µM | 440 ± 100 nM |  | more potent than the (+) isomer |
